Measurements reported in patent US20120114797A1, “TALAROMYCES STRAINS AND ENZYME COMPOSITIONS” (DSM IP ASSETS B.V., priority 2009, published 2012).

What was measured:
TEC-142 = test: MIC of glucose analogs on YNB+agar plates, TEC-142; assay type: cell-based, Talaromyces emersonii; settings: 10^7/ml spore suspensions of TEC-142 on YNB+agar plates
Description: MIC values of various glucose analogs (2-deoxyglucose, 1-thioglucose, 5-thioglucose) are determined by examining growth after inoculation of 0.1 ml dilutions of 10^7/ml spore suspensions of TEC-142 on YNB+agar plates with increasing concentrations of analogs.
The MIC value of 2-deoxyglucose (DOG) was determined by examining growth after inoculation of 0.1 ml dilutions of 10^7/ml spore suspensions of TEC-142 on YNB+agar plates with increasing concentrations of analog.

TEC-180 = test: MIC of 2-deoxyglucose on YNB+agar plates, TEC-180; assay type: cell-based, Talaromyces emersonii; settings: 10^7/ml spore suspensions of TEC-180 on YNB+agar plates

Row | SMILES | MIC (TEC-142) [µg/mL] | MIC (TEC-180) [µg/mL]
1 | OC[C@@H](O)[C@@H](O)[C@H](O)[C@@H](O)C=S [1-thioglucose] | 4000 | –
2 | O=CC[C@@H](O)[C@H](O)[C@H](O)CO [2-deoxyglucose, 2-deoxy-D-glucose] | 500 | 500
